Laboratory results published in paper PMC7957565 (Molecules, 2021).

Assays:
[1] = Singlet oxygen scavenging by ESR spectroscopy (TEMP, UVA light); type: physicochemical; conditions: 10^−2 mol/L compound, 5 × 10^−2 mol/L TEMP in DMSO, UVA light 1 min
Method: Oxidative stress caused by reactive oxygen (for example, singlet oxygen and hydroxyl radical) is related to the death of neurons and the formation of intracellular Aβ oligomer. Drugs designed to prevent the formation or removal of free radicals in the brain are beneficial for AD. The main technique for detecting organic free radicals is electron spin resonance (ESR) spectroscopy. This technology can detect radical concentrations on the order of 10 nM or less under favorable conditions and has high sensitivity. Therefore, compound 6bd was tested for its ability to scavenge active oxygen by using ESR spectroscopy. For comparison, edaravone (Eda) was used as a reference.
ESR signals were recorded with a 10 mW incident microwave and […] field modulation of 1 G. The scan width was 150 G for 2, 2, 6, 6-tetramethylpiperidine (TEMP) experiments. All measurements were performed at room temperature (RT). Briefly, 5 × 10^−2 mol/L TEMP and 10^−2 mol/L 6bd or Eda were mixed in DMSO, and ESR signals were obtained after exposure to UVA light for 1 min.

in vitro = in vitro ADME; conditions: PAMPA-BBB
Method: A blood–brain barrier (BBB) penetration assay in vitro is essential for anti-AD drug development. […] The compounds’ blood–brain barrier penetration was evaluated by using the parallel artificial membrane permeation assay (PAMPA) described by Di et al.. The two commercial drugs were purchased from Aladdin (China). Porcine brain lipid was obtained from Sigma (China). The donor microplate (polyvinylidene fluoride (PVDF) membrane, pore size 0.45 μm) and acceptor microplate were both from Millipore (China). The 96-well ultraviolet (UV) plate (COSTAR) was from Corning Incorporated (USA). The detailed procedure was described in [26, 27].

primary cortical neurons = test: Neuroprotection against OGD/R injury, MTT cell viability; type: cell-based; conditions: Rattus norvegicus, Primary cortical neuron, compound 10 μM, control 100%, OGD/R group 40.4%, read-out: Cell viability (MTT) after OGD/R
Method: The parental compounds Clau F and CZ-7 have remarkable neuroprotective effects. To further confirm whether the derivatives retain activity, an OGD/R model was performed in primary cortical neurons, and 3-(4,5-dimethylthiazol-2-yl)-2,5-diphenyltetrazolium bromide (MTT) assays were used to test cell viability. […]. According to the experimental results above, compound 6bd was selected as the candidate compound for the subsequent investigations.
[…]. All cell suspensions were grown in neurobasal/B27 medium with 100-U/mL penicillin and 100-μg/mL streptomycin. The cells were plated in poly-L-lysine (PLL, 0.1 mg/mL)-coated multiwell plates or chamber slides and maintained at 37 °C in a humidified atmosphere of 5% CO2 and 95% air. Seven day cultures were used for treatment. The treatment methods were similar to those used for PC12, but the concentrations of H2O2 and sodium dithionite were 100 μM and 2 mM, respectively.
Cell viability was determined by MTT assay. Cells were incubated with 5 mg/mL MTT (10 μL) at 37 °C for 4 h. The formazan crystals were dissolved, and absorbance was determined at 570 nm using a Microplate Reader (Thermo, Germany). The cell viability was expressed as a percentage of the optical density (OD) value of the control cultures.
Figure 2 Neuroprotective activity screening of 6aa–ad, 6ba–bf, 6ca–cd, and CZ-7 at 10 μM in primary cortical neurons induced by oxygen–glucose deprivation/reoxygenation (OGD/R). Neurons were exposed to […] sodium dithionite and reoxygenation. A 3-(4,5-dimethylthiazol-2-yl)-2,5-diphenyltetrazolium bromide (MTT) assay was used to test the cell viability. The absorbance of normal cells was regarded as 100%. Error bars represent the standard deviation. ### p < 0.001 vs. control; ** p < 0.05, *** p < 0.01 vs. model (means ± standard deviation, n = 6).

[2] = target: butyrylcholinesterase (BuChE, from equine serum) (Equus caballus, UniProt P81908); test: biochemical; conditions: eqBuChE; mean ± spread
Sequence of butyrylcholinesterase (BuChE, from equine serum) (P81908 whole entry): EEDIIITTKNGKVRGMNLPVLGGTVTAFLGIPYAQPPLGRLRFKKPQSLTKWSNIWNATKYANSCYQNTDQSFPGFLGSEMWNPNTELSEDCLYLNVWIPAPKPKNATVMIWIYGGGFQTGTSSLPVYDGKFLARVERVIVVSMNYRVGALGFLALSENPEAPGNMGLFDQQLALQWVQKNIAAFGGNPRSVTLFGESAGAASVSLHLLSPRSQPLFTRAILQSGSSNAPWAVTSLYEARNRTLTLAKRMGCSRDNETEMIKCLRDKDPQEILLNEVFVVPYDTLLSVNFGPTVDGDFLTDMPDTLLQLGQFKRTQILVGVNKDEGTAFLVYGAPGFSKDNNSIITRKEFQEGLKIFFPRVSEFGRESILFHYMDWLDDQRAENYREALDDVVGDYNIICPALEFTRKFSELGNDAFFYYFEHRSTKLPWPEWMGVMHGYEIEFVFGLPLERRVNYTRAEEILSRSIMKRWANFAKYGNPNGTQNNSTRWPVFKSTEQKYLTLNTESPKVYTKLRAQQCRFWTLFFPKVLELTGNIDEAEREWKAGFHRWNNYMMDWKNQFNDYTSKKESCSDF

AChE (from electric eel) = target: T1, AChE (from electric eel) (Electrophorus electricus, UniProt O42275); test: biochemical; conditions: eeAChE; for IC50: mean ± spread; for inhibition at 100 µM: compound at 100 μM, read-out: AChE inhibition rate (%) in 100 μM
T1 construct: purchased Sigma-Aldrich
T1 sequence (O42275 24-633): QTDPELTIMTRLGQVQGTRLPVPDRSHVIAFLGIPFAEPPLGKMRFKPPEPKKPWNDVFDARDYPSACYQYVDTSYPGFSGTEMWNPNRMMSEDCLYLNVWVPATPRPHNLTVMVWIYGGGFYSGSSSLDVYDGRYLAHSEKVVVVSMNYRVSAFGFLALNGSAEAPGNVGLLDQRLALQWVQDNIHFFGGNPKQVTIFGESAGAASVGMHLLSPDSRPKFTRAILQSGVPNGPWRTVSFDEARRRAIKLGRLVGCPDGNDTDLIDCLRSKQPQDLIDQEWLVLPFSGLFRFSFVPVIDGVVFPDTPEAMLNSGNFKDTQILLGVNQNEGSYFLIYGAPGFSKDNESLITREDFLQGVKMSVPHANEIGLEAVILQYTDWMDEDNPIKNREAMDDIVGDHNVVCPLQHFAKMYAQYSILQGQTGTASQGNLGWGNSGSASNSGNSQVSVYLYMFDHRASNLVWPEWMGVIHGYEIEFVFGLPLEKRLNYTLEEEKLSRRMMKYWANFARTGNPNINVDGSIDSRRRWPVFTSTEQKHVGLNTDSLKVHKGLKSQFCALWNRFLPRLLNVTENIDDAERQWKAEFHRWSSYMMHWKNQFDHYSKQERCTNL

[3] = design: method as in PMID 29202406; conditions: cited from earlier work
[4] = system: ICR (Institute of Cancer Research) mice; conditions: oral 1 g/kg dose; cited from earlier work

Row | Structure (SMILES) | IC50 [2] [µM] | IC50 (AChE (from electric eel)) [µM] | inhibition at 100 µM (AChE (from electric eel)) [%] | also measured
1 | CC1(C)C=Cc2c(c(/C=C/C(=O)NCC3CCN(Cc4ccccc4Cl)CC3)cc3c2[nH]c2ccc(C(C)(C)C)cc23)O1 [Compound 6bd, (E)-3-(8-(tert-Butyl)-3,3-dimethyl-3,11-dihydropyrano[3,2-a]carbazol-5-yl)-N-((1-(2-chlorobenzyl)piperidin-4-yl)methyl)acrylamide] | 5.46 ± 0.61 | 4.34 ± 0.46 |  | Singlet oxygen scavenging compared with edaravone (Eda) [1]: stronger effect; Brain penetration classification (in vitro): good brain penetration; Papp (in vitro; means ± SD of three independent experiments, read-out: Permeability Pe, Experiment): 4.38 ± 0.05 ×10⁻⁶ cm/s; viability at 10 µM (primary cortical neurons): 126%
2 | CC1(C)C=Cc2c(c(/C=C/C(=O)NCC3CCN(Cc4ccccc4F)CC3)cc3c2[nH]c2ccc(C(C)(C)C)cc23)O1 [Compound 6bb, (E)-3-(8-(tert-Butyl)-3,3-dimethyl-3,11-dihydropyrano[3,2-a]carbazol-5-yl)-N-((1-(2-fluorobenzyl)piperidin-4-yl)methyl)acrylamide] | 5.63 ± 0.31 | 4.08 ± 0.12 |  | viability at 10 µM (primary cortical neurons): 109%
3 | CC1(C)C=Cc2c(c(/C=C/C(=O)NCCC3CCN(Cc4ccccc4F)CC3)cc3c2[nH]c2ccc(C(C)(C)C)cc23)O1 [Compound 6cb, (E)-3-(8-(tert-Butyl)-3,3-dimethyl-3,11-dihydropyrano[3,2-a]carbazol-5-yl)-N-(2-(1-(2-fluorobenzyl)piperidin-4-yl)ethyl)acrylamide] | 19.1 ± 2.04 | 10.7 ± 0.2 |  | 
4 | COc1ccc2[nH]c3c4c(c(/C=C/C(=O)NC5CCN(Cc6ccccc6F)CC5)cc3c2c1)OC(C)(C)C=C4 [Compound 6af, (E)-N-(1-(2-Fluorobenzyl)piperidin-4-yl)-3-(8-methoxy-3,3-dimethyl-3,11-dihydropyrano[3,2-a]carbazol-5-yl)acrylamide] | 24.5 ± 1.94 |  | 34.2 ± 10.7 | 
5 | Cc1ccccc1CN1CCC(NC(=O)/C=C/c2cc3c([nH]c4ccc(C(C)(C)C)cc43)c3c2OC(C)(C)C=C3)CC1 [Compound 6ac, (E)-3-(8-(tert-Butyl)-3,3-dimethyl-3,11-dihydropyrano[3,2-a]carbazol-5-yl)-N-(1-(2-methylbenzyl)piperidin-4-yl)acrylamide] | 34.3 ± 0.69 |  | 50.9 ± 2.76 | 
6 | COc1ccc2[nH]c3c4c(c(C=O)cc3c2c1)OC(C)(C)C=C4 [Clau F, Claulansine F, reference compound] | 64.3 ± 7.52 |  | 28.2 ± 2.11 | 
7 | COc1ccc2[nH]c3c4c(c(/C=C/C(=O)NCC5CCN(Cc6ccccc6C)CC5)cc3c2c1)OC(C)(C)C=C4 [Compound 6bi, (E)-3-(8-Methoxy-3,3-dimethyl-3,11-dihydropyrano[3,2-a]carbazol-5-yl)-N-((1-(2-methylbenzyl)piperidin-4-yl)methyl)acrylamide] | 32.8 ± 0.5 | 58.4 ± 1.79 |  | 
8 | COc1ccc2[nH]c3c4c(c(/C=C/C(=O)NC5CCN(Cc6ccccc6Cl)CC5)cc3c2c1)OC(C)(C)C=C4 [Compound 6ah, (E)-N-(1-(2-Chlorobenzyl)piperidin-4-yl)-3-(8-methoxy-3,3-dimethyl-3,11-dihydropyrano[3,2-a]carbazol-5-yl)acrylamide] | 18 ± 2.27 |  | 40 ± 1.4 | 
9 | COc1ccc2[nH]c3c4c(c(/C=C/C(=O)NCCC5CCN(Cc6ccccc6Cl)CC5)cc3c2c1)OC(C)(C)C=C4 [Compound 6ch, (E)-N-(2-(1-(2-Chlorobenzyl)piperidin-4-yl)ethyl)-3-(8-methoxy-3,3-dimethyl-3,11-dihydropyrano[3,2-a]carbazol-5-yl)acrylamide] | 24.2 ± 4.78 | 24.6 ± 2.1 |  | 
10 | Cc1cc2c([nH]c3ccc(C(C)(C)C)cc32)c2c1OC(C)(C)C=C2 [CZ-7, reference compound] | 59.5 ± 5.62 |  | 32.5 ± 6.52 | Exposure in the brain relative to plasma [3]: 4.3 fold; Acute toxicity finding [4]: no toxic side effects; viability at 10 µM (primary cortical neurons): 113%
11 | COc1ccc2[nH]c3c4c(c(/C=C/C(=O)NCCC5CCN(Cc6ccccc6F)CC5)cc3c2c1)OC(C)(C)C=C4 [Compound 6cf, (E)-N-(2-(1-(2-Fluorobenzyl)piperidin-4-yl)ethyl)-3-(8-methoxy-3,3-dimethyl-3,11-dihydropyrano[3,2-a]carbazol-5-yl)acrylamide] | 18 ± 3.35 | 54.8 ± 7.96 |  | 
12 | CC1(C)C=Cc2c(c(/C=C/C(=O)NCC3CCN(Cc4ccccc4)CC3)cc3c2[nH]c2ccc(C(C)(C)C)cc23)O1 [Compound 6ba, (E)-N-((1-Benzylpiperidin-4-yl)methyl)-3-(8-(tert-butyl)-3,3-dimethyl-3,11-dihydropyrano[3,2-a]carbazol-5-yl)acrylamide] | 12.3 ± 0.66 | 4.62 ± 0.28 |  | 
13 | COc1ccc2[nH]c3c4c(c(/C=C/C(=O)NC5CCN(Cc6ccccc6C)CC5)cc3c2c1)OC(C)(C)C=C4 [Compound 6ag, (E)-3-(8-Methoxy-3,3-dimethyl-3,11-dihydropyrano[3,2-a]carbazol-5-yl)-N-(1-(2-methylbenzyl)piperidin-4-yl)acrylamide] | 26.4 ± 4.51 |  | 36.8 ± 1.25 | 
14 | CC1(C)C=Cc2c(c(/C=C/C(=O)NCC3CCN(Cc4ccc(Cl)cc4)CC3)cc3c2[nH]c2ccc(C(C)(C)C)cc23)O1 [Compound 6bf, (E)-3-(8-(tert-Butyl)-3,3-dimethyl-3,11-dihydropyrano[3,2-a]carbazol-5-yl)-N-((1-(4-chlorobenzyl)piperidin-4-yl)methyl)acrylamide] | 12.1 ± 0.76 | 1.63 ± 0.3 |  | viability at 10 µM (primary cortical neurons): 107%
15 | CC1(C)C=Cc2c(c(/C=C/C(=O)NCC3CCN(Cc4cccc(Cl)c4)CC3)cc3c2[nH]c2ccc(C(C)(C)C)cc23)O1 [Compound 6be, (E)-3-(8-(tert-Butyl)-3,3-dimethyl-3,11-dihydropyrano[3,2-a]carbazol-5-yl)-N-((1-(3-chlorobenzyl)piperidin-4-yl)methyl)acrylamide] | 6.36 ± 1.21 | 1.69 |  | viability at 10 µM (primary cortical neurons): 105%
16 | COc1ccc2[nH]c3c4c(c(/C=C/C(=O)NCC5CCN(Cc6ccccc6)CC5)cc3c2c1)OC(C)(C)C=C4 [Compound 6bg, (E)-N-((1-Benzylpiperidin-4-yl)methyl)-3-(8-methoxy-3,3-dimethyl-3,11-dihydropyrano[3,2-a]carbazol-5-yl)acrylamide] | 74.9 ± 3.21 | 27.7 ± 5.15 |  | 
17 | COc1ccc2[nH]c3c4c(c(/C=C/C(=O)NC5CCN(Cc6ccccc6)CC5)cc3c2c1)OC(C)(C)C=C4 [Compound 6ae, (E)-N-(1-Benzylpiperidin-4-yl)-3-(8-methoxy-3,3-dimethyl-3,11-dihydropyrano[3,2-a]carbazol-5-yl)acrylamide] | 69.1 ± 8.51 |  | 20.4 ± 7.35 | 
18 | COc1ccc2[nH]c3c4c(c(/C=C/C(=O)NCCC5CCN(Cc6ccccc6)CC5)cc3c2c1)OC(C)(C)C=C4 [Compound 6ce, (E)-N-(2-(1-Benzylpiperidin-4-yl)ethyl)-3-(8-methoxy-3,3-dimethyl-3,11-dihydropyrano[3,2-a]carbazol-5-yl)acrylamide] | 26.4 ± 1.4 | 41.7 ± 1.22 |  | 
